Reference: ChEMBL document CHEMBL1149550, “5(Z)-benzylidene-1,2-dihydro-9-hydroxy-10-methoxy-2,2,4-trimethyl-5H-1-aza-6-oxa-chrysenes as non-steroidal glucocorticoid receptor modulators” (Bioorg Med Chem Lett, 2007)
Active and inactive are the calls of the source. The calls are words filed in the database; no cut-off is given here.

Assays:
[1] = target: T1, Glucocorticoid receptor (Homo sapiens, UniProt P04150); type: functional
T1 sequence (P04150 whole entry): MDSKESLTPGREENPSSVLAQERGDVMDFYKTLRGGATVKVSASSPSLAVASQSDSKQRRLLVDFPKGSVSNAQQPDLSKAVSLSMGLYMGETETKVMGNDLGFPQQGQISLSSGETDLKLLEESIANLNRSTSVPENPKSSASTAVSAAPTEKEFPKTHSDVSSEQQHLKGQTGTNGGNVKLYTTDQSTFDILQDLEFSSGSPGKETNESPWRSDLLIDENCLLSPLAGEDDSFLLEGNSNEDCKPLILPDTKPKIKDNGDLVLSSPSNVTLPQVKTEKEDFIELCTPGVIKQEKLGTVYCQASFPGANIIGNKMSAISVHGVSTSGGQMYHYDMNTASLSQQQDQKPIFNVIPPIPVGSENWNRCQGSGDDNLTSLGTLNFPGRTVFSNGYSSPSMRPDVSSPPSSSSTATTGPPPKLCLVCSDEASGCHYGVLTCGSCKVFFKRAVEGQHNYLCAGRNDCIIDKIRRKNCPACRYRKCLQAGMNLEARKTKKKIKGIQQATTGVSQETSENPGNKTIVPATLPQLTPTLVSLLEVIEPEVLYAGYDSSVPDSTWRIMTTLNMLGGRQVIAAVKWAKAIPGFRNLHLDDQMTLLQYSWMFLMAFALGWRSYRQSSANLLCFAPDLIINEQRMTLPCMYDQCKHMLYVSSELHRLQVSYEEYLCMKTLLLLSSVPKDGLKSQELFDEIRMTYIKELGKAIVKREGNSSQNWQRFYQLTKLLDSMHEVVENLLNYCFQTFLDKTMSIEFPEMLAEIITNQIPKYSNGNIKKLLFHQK
Description: Activity at GR assessed as repression of TNFalpha and IL 1-beta induced E-selectin response

[2] = target: T1, Glucocorticoid receptor; type: functional; remark: listed apart in the source
Description: Agonist activity at GR by GRE activation assay

[3] = target: T2, Progesterone receptor (Homo sapiens, UniProt P06401); assay: Binding affinity at PR
T2 sequence (P06401 whole entry): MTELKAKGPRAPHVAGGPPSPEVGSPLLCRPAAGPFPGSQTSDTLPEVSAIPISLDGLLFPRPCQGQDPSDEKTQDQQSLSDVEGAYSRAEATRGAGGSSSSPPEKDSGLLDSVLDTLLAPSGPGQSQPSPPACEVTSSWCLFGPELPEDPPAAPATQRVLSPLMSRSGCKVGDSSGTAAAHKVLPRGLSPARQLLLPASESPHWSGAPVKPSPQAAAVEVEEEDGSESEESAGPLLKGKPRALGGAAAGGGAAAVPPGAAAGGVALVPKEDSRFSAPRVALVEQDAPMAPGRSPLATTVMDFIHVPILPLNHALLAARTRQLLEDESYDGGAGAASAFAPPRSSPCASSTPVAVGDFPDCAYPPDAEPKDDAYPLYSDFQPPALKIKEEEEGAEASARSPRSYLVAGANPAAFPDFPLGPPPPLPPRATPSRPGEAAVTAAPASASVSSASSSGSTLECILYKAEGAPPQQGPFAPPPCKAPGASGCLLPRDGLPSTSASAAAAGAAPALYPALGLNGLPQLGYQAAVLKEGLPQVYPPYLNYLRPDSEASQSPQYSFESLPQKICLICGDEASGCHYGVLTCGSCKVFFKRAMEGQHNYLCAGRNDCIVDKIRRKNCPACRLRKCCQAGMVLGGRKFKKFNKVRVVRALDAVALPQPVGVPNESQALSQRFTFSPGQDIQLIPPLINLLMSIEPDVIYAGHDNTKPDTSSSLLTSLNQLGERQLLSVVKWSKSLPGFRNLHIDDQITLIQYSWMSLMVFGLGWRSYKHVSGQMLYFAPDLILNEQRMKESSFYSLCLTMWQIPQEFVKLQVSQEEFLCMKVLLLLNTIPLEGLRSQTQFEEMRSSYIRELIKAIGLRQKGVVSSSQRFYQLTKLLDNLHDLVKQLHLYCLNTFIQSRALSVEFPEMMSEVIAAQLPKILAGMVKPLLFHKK

[4] = target: T1, Glucocorticoid receptor; type: functional; remark: listed apart in the source
Description: Antagonist activity at GR assessed as inhibition of dexamethasone-induced GRE activation

[5] = target: T3, Androgen receptor (Homo sapiens, UniProt P10275); assay: Binding affinity at AR
T3 sequence (P10275 whole entry): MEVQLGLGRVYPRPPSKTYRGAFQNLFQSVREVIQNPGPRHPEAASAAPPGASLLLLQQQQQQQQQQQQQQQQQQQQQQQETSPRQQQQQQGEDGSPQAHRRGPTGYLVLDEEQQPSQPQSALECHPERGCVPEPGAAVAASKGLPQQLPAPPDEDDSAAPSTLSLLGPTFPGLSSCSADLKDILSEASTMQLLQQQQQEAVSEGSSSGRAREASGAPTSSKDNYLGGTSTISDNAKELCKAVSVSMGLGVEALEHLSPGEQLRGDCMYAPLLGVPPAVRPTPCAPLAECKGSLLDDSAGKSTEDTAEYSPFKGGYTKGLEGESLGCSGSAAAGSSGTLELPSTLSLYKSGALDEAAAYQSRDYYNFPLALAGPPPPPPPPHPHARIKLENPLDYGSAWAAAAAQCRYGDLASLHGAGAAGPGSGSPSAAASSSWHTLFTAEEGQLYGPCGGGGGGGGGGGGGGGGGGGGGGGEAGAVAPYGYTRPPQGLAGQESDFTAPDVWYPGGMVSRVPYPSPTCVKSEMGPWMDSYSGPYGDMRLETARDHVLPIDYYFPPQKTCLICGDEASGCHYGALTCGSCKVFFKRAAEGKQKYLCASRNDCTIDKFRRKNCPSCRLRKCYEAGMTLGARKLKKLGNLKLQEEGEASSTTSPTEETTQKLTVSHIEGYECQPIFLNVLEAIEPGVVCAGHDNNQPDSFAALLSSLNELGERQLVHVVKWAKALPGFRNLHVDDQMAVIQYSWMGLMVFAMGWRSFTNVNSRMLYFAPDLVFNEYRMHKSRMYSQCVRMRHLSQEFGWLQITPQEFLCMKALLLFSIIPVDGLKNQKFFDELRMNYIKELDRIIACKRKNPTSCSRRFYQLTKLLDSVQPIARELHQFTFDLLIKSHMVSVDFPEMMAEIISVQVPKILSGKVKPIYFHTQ

[6] = target: T4, Mineralocorticoid receptor (Homo sapiens, UniProt P08235); assay: Binding affinity at MR
T4 sequence (P08235 whole entry): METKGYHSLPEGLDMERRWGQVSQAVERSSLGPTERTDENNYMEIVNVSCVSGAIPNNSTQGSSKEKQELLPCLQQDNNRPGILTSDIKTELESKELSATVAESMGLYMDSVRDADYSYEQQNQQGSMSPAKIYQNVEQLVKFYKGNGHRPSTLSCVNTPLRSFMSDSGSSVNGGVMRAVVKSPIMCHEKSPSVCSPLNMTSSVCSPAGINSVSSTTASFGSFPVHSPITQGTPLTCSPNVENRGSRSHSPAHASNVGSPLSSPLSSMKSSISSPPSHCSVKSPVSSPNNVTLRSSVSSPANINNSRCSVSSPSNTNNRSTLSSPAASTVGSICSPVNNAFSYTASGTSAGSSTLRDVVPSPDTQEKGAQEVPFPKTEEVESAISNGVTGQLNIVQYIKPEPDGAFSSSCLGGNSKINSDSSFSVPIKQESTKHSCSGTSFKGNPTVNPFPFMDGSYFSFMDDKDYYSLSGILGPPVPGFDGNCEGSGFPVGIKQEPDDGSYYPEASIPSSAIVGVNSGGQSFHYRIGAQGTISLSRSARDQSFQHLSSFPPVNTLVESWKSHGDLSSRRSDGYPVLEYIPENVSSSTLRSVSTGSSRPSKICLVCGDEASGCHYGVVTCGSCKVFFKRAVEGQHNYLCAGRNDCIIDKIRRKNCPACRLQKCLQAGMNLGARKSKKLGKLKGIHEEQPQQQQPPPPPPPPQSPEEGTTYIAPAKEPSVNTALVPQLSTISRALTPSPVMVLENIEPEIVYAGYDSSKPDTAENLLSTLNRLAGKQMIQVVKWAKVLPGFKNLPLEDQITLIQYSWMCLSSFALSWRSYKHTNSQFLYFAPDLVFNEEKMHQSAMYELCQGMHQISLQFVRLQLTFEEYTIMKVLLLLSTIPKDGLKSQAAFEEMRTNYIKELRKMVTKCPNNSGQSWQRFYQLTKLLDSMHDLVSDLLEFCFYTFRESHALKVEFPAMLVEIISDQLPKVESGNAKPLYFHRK

[7] = target: T1, Glucocorticoid receptor
Description: Displacement of radiolabeled Dexamethasone from glucocorticoid receptor

[8] = system: Rattus norvegicus; assay: Antiinflammatory activity against carrageenan-induced paw edema in rat assessed as paw volume at 30 mg/kg after 3 hrs; type: functional, organism-based; parameters: dose 30 mg/kg

| IC50 [1] [nM] | EC50 [2] [nM] | Ki [3] [nM] | IC50 [4] [nM] | Ki [5] [nM] | Ki [6] [nM] | Ki [7] [nM] | Compound | Activity [8] |
| --- | --- | --- | --- | --- | --- | --- | --- | --- |
| 1.1 | 1.5 | 750 | 4.7 | 910 | 290 | 1.4 | COc1c(O)ccc2c1-c1ccc3c(c1/C(=C/c1cccc(O)c1)O2)C(C)=CC(C)(C)N3 | – |
| – | – | 840 | – | 630 | 430 | – | COCOCc1cc(F)ccc1/C=C1\Oc2ccc(O)c(OC)c2-c2ccc3c(c21)C(C)=CC(C)(C)N3 | – |
| – | – | – | – | – | – | – | COc1c(O)ccc2c1-c1ccc3c(c1/C(=C/c1cc(F)cc4c1OCOC4)O2)C(C)=CC(C)(C)N3 | Active |
| – | – | 970 | – | 700 | 1100 | – | COc1c(O)ccc2c1-c1ccc3c(c1/C(=C/c1ccc(F)cc1CO)O2)C(C)=CC(C)(C)N3 | – |
